Reference: article PMC8578332 (Scientific Reports, 2021)
Where two headings read alike, the source gives them in different places. Where a SMILES comes first, the peptide text is derived from it. Bridges are numbered along the chain shown (N, C = ends).

Molecular target: human α7-containing nAChRs (Homo sapiens, UniProt P36544)
Test: cell-based
Assay type: cell-based

Sequence of human α7-containing nAChRs (P36544 23-502 limits assumed): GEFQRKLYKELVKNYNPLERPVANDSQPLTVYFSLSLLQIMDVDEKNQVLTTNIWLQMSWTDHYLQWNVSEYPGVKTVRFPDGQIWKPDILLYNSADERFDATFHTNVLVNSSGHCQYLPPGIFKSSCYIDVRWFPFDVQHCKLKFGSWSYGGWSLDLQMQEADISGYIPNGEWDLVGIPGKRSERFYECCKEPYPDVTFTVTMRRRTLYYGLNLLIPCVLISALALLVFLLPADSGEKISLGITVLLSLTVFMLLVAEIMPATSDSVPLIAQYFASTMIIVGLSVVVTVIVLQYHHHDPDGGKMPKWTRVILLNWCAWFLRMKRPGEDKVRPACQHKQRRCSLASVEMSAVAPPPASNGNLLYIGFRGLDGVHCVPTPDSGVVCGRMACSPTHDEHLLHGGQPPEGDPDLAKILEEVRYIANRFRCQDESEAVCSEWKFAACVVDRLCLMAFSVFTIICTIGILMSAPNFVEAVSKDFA

Row | Structure (SMILES) | IC50 (SEM) [µM] | IC50 [µM] | antagonistic activity / potency at α7-containing nAChRs in words
1 | CC(C)[C@H](NC(=O)[C@@H]1CSSC[C@H](NC(=O)[C@@H](N)CO)C(=O)N[C@H]2CSSC[C@H](NC(=O)[C@H](C)NC(=O)[C@@H]3CCCN3C(=O)[C@H](CC(N)=O)NC(=O)[C@H](CCCNC(=N)N)NC2=O)C(=O)N[C@@H](CCCNC(=N)N)C(=O)N[C@@H](Cc2c[nH]cn2)C(=O)N[C@@H](CC(N)=O)C(=O)N[C@@H](Cc2c[nH]cn2)C(=O)N2CCC[C@H]2C(=O)N1)C(N)=O [rAusIA [∆4]] (H-SCCRNPACRHNHPCV-NH2; disulfide 2-14, 3-8) | 11 ± 0.24 |  | 
2 | CC(C)[C@H](NC(=O)[C@@H]1CSSC[C@H](NC(=O)[C@@H](N)CO)C(=O)N[C@H]2CSSC[C@H](NC(=O)[C@H](C)NC(=O)[C@@H]3CCCN3C(=O)[C@H](CC(N)=O)NC(=O)[C@H](CO)NC(=O)[C@H](C)NC2=O)C(=O)N[C@@H](CCCNC(=N)N)C(=O)N[C@@H](Cc2c[nH]cn2)C(=O)N[C@@H](CC(N)=O)C(=O)N[C@@H](Cc2c[nH]cn2)C(=O)N2CCC[C@H]2C(=O)N1)C(N)=O [rAusIA [R5S]] (H-SCCASNPACRHNHPCV-NH2; disulfide 2-15, 3-9) | 70 ± 10 |  | 
3 | C[C@@H]1NC(=O)[C@@H]2CSSC[C@@H](C(N)=O)NC(=O)[C@@H]3CCCN3C(=O)[C@H](Cc3c[nH]cn3)NC(=O)[C@H](CC(N)=O)NC(=O)[C@H](Cc3c[nH]cn3)NC(=O)[C@H](CCCNC(=N)N)NC(=O)[C@H](CSSC[C@H](NC(=O)[C@@H](N)CO)C(=O)N2)NC(=O)[C@H](C)NC(=O)[C@@H]2CCCN2C(=O)[C@H](CC(N)=O)NC(=O)[C@H](CCCNC(=N)N)NC1=O [gAusIA [∆16]] (H-SCCARNPACRHNHPC-NH2; disulfide 2-9, 3-15) | 12 ± 2.3 |  | 
4 | CC(C)[C@H](NC(=O)[C@@H]1CSSC[C@@H]2NC(=O)[C@@H](NC(=O)[C@@H](N)CO)CSSC[C@H](NC(=O)[C@H](C)NC(=O)[C@@H]3CCCN3C(=O)[C@H](CC(N)=O)NC(=O)[C@H](C)NC(=O)[C@H](C)NC2=O)C(=O)N[C@@H](CCCNC(=N)N)C(=O)N[C@@H](Cc2c[nH]cn2)C(=O)N[C@@H](CC(N)=O)C(=O)N[C@@H](Cc2c[nH]cn2)C(=O)N2CCC[C@H]2C(=O)N1)C(N)=O [gAusIA [R5A]] (H-SCCAANPACRHNHPCV-NH2; disulfide 2-9, 3-15) |  | > 100 | 
5 | C[C@@H]1NC(=O)[C@@H]2CSSC[C@H](NC(=O)[C@H](C)NC(=O)[C@@H]3CCCN3C(=O)[C@H](CC(N)=O)NC(=O)[C@H](CCCNC(=N)N)NC1=O)C(=O)N[C@@H](CCCNC(=N)N)C(=O)N[C@@H](Cc1c[nH]cn1)C(=O)N[C@@H](CC(N)=O)C(=O)N[C@@H](Cc1c[nH]cn1)C(=O)N1CCC[C@H]1C(=O)N[C@H](C(N)=O)CSSC[C@H](NC(=O)[C@@H](N)CO)C(=O)N2 [rAusIA [∆16]] (H-SCCARNPACRHNHPC-NH2; disulfide 2-15, 3-9) | 60 ± 9.9 |  | 
6 | CC[C@H](C)[C@@H]1NC(=O)[C@H](CC(N)=O)NC(=O)[C@@H]2CCCN2C(=O)[C@H](CC(N)=O)NC(=O)[C@H](CC(N)=O)NC(=O)[C@H](C(C)C)NC(=O)[C@H](CCCNC(=N)N)NC(=O)[C@@H]2CSSC[C@H](NC(=O)[C@@H](NC(=O)CNC(=O)[C@@H](N)CO)CSSC[C@@H](C(N)=O)NC1=O)C(=O)N[C@@H](CO)C(=O)N[C@@H](CCCNC(=N)N)C(=O)N[C@@H](CC(N)=O)C(=O)N1CCC[C@H]1C(=O)N[C@@H](C)C(=O)N2 [rLsIA [∇R6]] (H-SGCCSRNPACRVNNPNIC-NH2; disulfide 3-18, 4-10) | 66 ± 4.1 |  | 
7 | CC(C)[C@H](NC(=O)[C@@H]1CSSC[C@@H]2NC(=O)[C@@H](NC(=O)[C@@H](N)CO)CSSC[C@H](NC(=O)[C@H](C)NC(=O)[C@@H]3CCCN3C(=O)[C@H](CC(N)=O)NC(=O)[C@H](CCCNC(=N)N)NC(=O)[C@H](CO)NC2=O)C(=O)N[C@@H](CCCNC(=N)N)C(=O)N[C@@H](Cc2c[nH]cn2)C(=O)N[C@@H](CC(N)=O)C(=O)N[C@@H](Cc2c[nH]cn2)C(=O)N2CCC[C@H]2C(=O)N1)C(N)=O [gAusIA [A4S]] (H-SCCSRNPACRHNHPCV-NH2; disulfide 2-9, 3-15) | 70 ± 12.9 |  | 
8 | CC(C)[C@H](NC(=O)[C@@H]1CSSC[C@@H]2NC(=O)[C@@H](NC(=O)[C@@H](N)CO)CSSC[C@H](NC(=O)[C@H](C)NC(=O)[C@H](C)NC(=O)[C@H](CC(N)=O)NC(=O)[C@H](CCCNC(=N)N)NC(=O)[C@H](C)NC2=O)C(=O)N[C@@H](CCCNC(=N)N)C(=O)N[C@@H](Cc2c[nH]cn2)C(=O)N[C@@H](CC(N)=O)C(=O)N[C@@H](Cc2c[nH]cn2)C(=O)N2CCC[C@H]2C(=O)N1)C(N)=O [gAusIA [P7A]] (H-SCCARNAACRHNHPCV-NH2; disulfide 2-9, 3-15) |  | > 100 | 
9 | CC(C)[C@H](NC(=O)[C@@H]1CSSC[C@H](NC(=O)[C@@H](N)CO)C(=O)N[C@H]2CSSC[C@H](NC(=O)[C@H](C)NC(=O)[C@@H]3CCCN3C(=O)[C@H](CC(N)=O)NC(=O)[C@H](CCCNC(=N)N)NC(=O)[C@H](C)NC2=O)C(=O)N[C@@H](C)C(=O)N[C@@H](Cc2c[nH]cn2)C(=O)N[C@@H](CC(N)=O)C(=O)N[C@@H](Cc2c[nH]cn2)C(=O)N2CCC[C@H]2C(=O)N1)C(N)=O [rAusIA [R10A]] (H-SCCARNPACAHNHPCV-NH2; disulfide 2-15, 3-9) |  | > 100 | 
10 | CC(C)[C@H](NC(=O)[C@@H]1CSSC[C@@H]2NC(=O)[C@@H](NC(=O)[C@@H](N)CO)CSSC[C@H](NC(=O)[C@H](C)NC(=O)[C@@H]3CCCN3C(=O)[C@H](CC(N)=O)NC(=O)[C@H](CO)NC(=O)[C@H](C)NC2=O)C(=O)N[C@@H](CCCNC(=N)N)C(=O)N[C@@H](Cc2c[nH]cn2)C(=O)N[C@@H](CC(N)=O)C(=O)N[C@@H](Cc2c[nH]cn2)C(=O)N2CCC[C@H]2C(=O)N1)C(N)=O [gAusIA [R5S]] (H-SCCASNPACRHNHPCV-NH2; disulfide 2-9, 3-15) |  | > 100 | 
11 | C[C@@H]1NC(=O)[C@@H]2CSSC[C@@H](C(N)=O)NC(=O)[C@@H]3CCCN3C(=O)[C@H](Cc3c[nH]cn3)NC(=O)[C@H](CC(N)=O)NC(=O)[C@H](Cc3c[nH]cn3)NC(=O)[C@H](CCCNC(=N)N)NC(=O)[C@H](CSSC[C@H](NC(=O)[C@@H](N)CO)C(=O)N2)NC(=O)[C@H](C)NC(=O)[C@@H]2CCCN2C(=O)[C@H](CC(N)=O)NC1=O [gAusIA [∆5 ∆16]] (H-SCCANPACRHNHPC-NH2; disulfide 2-8, 3-14) | 0.241 ± 0.062 |  | 
12 | CC(C)C[C@@H]1NC(=O)[C@H](CCCNC(=N)N)NC(=O)[C@@H]2CSSC[C@H](NC(=O)[C@@H](N)CO)C(=O)N[C@@H](CSSC[C@@H](C(=O)N[C@H](C(N)=O)C(C)C)NC(=O)[C@@H]3CCCN3C(=O)[C@H](Cc3c[nH]cn3)NC(=O)[C@H](CC(N)=O)NC1=O)C(=O)N[C@@H](C)C(=O)N[C@@H](CCCNC(=N)N)C(=O)N[C@@H](CC(N)=O)C(=O)N1CCC[C@H]1C(=O)N[C@@H](C)C(=O)N2 [gAusIA [H11L]] (H-SCCARNPACRLNHPCV-NH2; disulfide 2-9, 3-15) |  | > 100 | inactive
13 | CC(C)[C@H](NC(=O)[C@@H]1CSSC[C@@H]2NC(=O)[C@@H](NC(=O)[C@@H](N)CO)CSSC[C@H](NC(=O)[C@H](C)NC(=O)[C@@H]3CCCN3C(=O)[C@H](CC(N)=O)NC(=O)[C@H](CCCNC(=N)N)NC2=O)C(=O)N[C@@H](CCCNC(=N)N)C(=O)N[C@@H](Cc2c[nH]cn2)C(=O)N[C@@H](CC(N)=O)C(=O)N[C@@H](Cc2c[nH]cn2)C(=O)N2CCC[C@H]2C(=O)N1)C(N)=O [gAusIA [∆4]] (H-SCCRNPACRHNHPCV-NH2; disulfide 2-8, 3-14) | 1 ± 0.03 |  | 
